Patent publication US20060167229A1, “Biologically active peptide conjugates” (priority 2002, published 2006)
“And” between values parts separate entries of the source, which are not always exact repeats. Equal values may be shown once. Marks after values point to notes of the source that are not given here. Ends that are not written are not given here.

Assays:
thymus gland = assay: Immunity organ weight test, thymus gland index; format: in vivo, BALB/c mice; conditions: for weight of thymus gland (thymus gland index), X ± SD (%): healthy mice, saline 0.12 ± 0.02; for effect on the weight of the thymus gland (summary): statistically significant difference from saline in any of the dosage groups 0.5-500 μg/kg/day
Procedure: One day after the last test substance administration (day 16), the liver, spleen, and thymus gland were separated and blotted dry with filter paper and weighed. The phagocytosis index α was calculated as below: α=(^3√{square root over ( )}K)(W÷WLS)
Thymus gland index (%)=(thymus weight/body weight)×100%

NK cell = NK cell cytotoxicity activity test (spleen cells of treated mice against YAC-1 target cells, MTT); format: in vivo, BALB/c mice; conditions: for NK cell cytotoxic activity, X ± SD (%): healthy mice; for effect on the cytotoxic activity of NK cells (summary): statistically significant difference from saline in any of the dosage groups 0.5-500 μg/kg/day
Procedure, shortened: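 YAC-1 target cells (1×10^5/ml) mixed with splenocytes (4×10^6/ml) from mice given test substances i.p. daily for 15 days (10 mice/group). Effector-only and target-only wells served as controls. MTT added at 1 mg/ml for 4 h at 37 °C; absorbance read at 570/630 nm.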

interferon (IFN) = system: interferon (IFN); set-up: species or system BALB/c mice; conditions: mouse, in vivo; for activity of T lymphocyte in secreting IFN, X ± SD (IU): ip
mononuclear phagocyte = assay: Carbon particle clearance test, phagocytosis function; format: in vivo, BALB/c mice; set-up: key to X ± SD (phagocytotic index): α = cube root of K × (body weight ÷ liver+spleen weight); conditions: for X ± SD (phagocytotic index): healthy mice, saline 5.1 ± 0.6; for effect on the phagocytotic activity of mononuclear phagocyte (summary): statistically significant difference from saline in any of the dosage groups 0.5-500 μg/kg/day
Procedure, shortened: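 Clearance index K came from OD680 of blood sampled 1 and 5 min after tail-vein India ink ([…], diluted 5×), given on day 16. Phagocytic index α combined K with liver, spleen […] weights taken the same day.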

anti-SRBC antibody = assay: Sheep Red Blood Cell (SRBC) hemolysis test, antibody formation; format: in vivo, BALB/c mice; conditions: for anti-SRBC antibody formation, X ± SD (Unit): healthy mice, SRBC day 12 (IFN-γ, IL-2 3×10^5 IU/kg/day), saline 32 ± 7; for effect on the synthesis of anti-SRBC antibody upon the antigenic challenge (summary): statistically significant difference from saline in any of the dosage groups 0.5-500 μg/kg/day
Procedure, shortened: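 Antibody formation was read as haemolysis: 500-fold diluted serum, collected on day 16 after intraperitoneal SRBC (0.2 ml, day 12), was mixed with 2% SRBC plus complement for 10 min at 37° C. Supernatant haemoglobin measured with Drabkin reagent at OD540, indexed against a reference SRBC lysate ×500.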

[1] = peptide 5 μg/kg/day i.p. 15 days (IFN-γ, IL-2 3×10^5 IU/kg/day)
[2] = peptide 50 μg/kg/day i.p. 15 days (IFN-γ, IL-2 3×10^5 IU/kg/day)
[3] = peptide 500 μg/kg/day i.p. 15 days (IFN-γ, IL-2 3×10^5 IU/kg/day)
[4] = peptide 500 μg/kg/day i.p. 15 days (IFN-γ, IL-2 3×10^5 IU/kg/day), saline 63 ± 9
[5] = peptide 5 μg/kg/day i.p. 15 days
[6] = peptide 500 μg/kg/day i.p. 15 days
[7] = peptide 5 μg/kg/day i.p. 15 days (IFN-γ, IL-2 3×10^5 IU/kg/day), saline 60 ± 9
[8] = peptide 0.5 μg/kg/day i.p. 15 days
[9] = peptide 50 μg/kg/day i.p. 15 days
[10] = peptide 0.5 μg/kg/day i.p. 15 days (IFN-γ, IL-2 3×10^5 IU/kg/day), saline 58 ± 7
[11] = peptide 0.5 μg/kg/day i.p. 15 days (IFN-γ, IL-2 3×10^5 IU/kg/day)

| Molecule | weight of thymus gland (thymus gland index), X ± SD (%) (thymus gland; [1]) | weight of thymus gland (thymus gland index), X ± SD (%) (thymus gland; [2]) | weight of thymus gland (thymus gland index), X ± SD (%) (thymus gland; [3]) | effect on the weight of the thymus gland (summary) (thymus gland) | NK cell cytotoxic activity, X ± SD (%) (NK cell; [4]) | effect on the cytotoxic activity of NK cells (summary) (NK cell) | effect on the secretion of IFN by T lymphocytes (summary) (interferon (IFN)) | activity of T lymphocyte in secreting IFN, X ± SD (IU) (interferon (IFN)) | X ± SD (phagocytotic index) (mononuclear phagocyte; [1]) | effect on the phagocytotic activity of mononuclear phagocyte (summary) (mononuclear phagocyte) | anti-SRBC antibody formation, X ± SD (Unit) (anti-SRBC antibody; [5]) | anti-SRBC antibody formation, X ± SD (Unit) (anti-SRBC antibody; [6]) | effect on the synthesis of anti-SRBC antibody upon the antigenic challenge (summary) (anti-SRBC antibody) | NK cell cytotoxic activity, X ± SD (%) (NK cell; [7]) | anti-SRBC antibody formation, X ± SD (Unit) (anti-SRBC antibody; [8]) | anti-SRBC antibody formation, X ± SD (Unit) (anti-SRBC antibody; [9]) | NK cell cytotoxic activity, X ± SD (%) (NK cell; [10]) | weight of thymus gland (thymus gland index), X ± SD (%) (thymus gland; [11]) | X ± SD (phagocytotic index) (mononuclear phagocyte; [3]) | also measured |
| --- | --- | --- | --- | --- | --- | --- | --- | --- | --- | --- | --- | --- | --- | --- | --- | --- | --- | --- | --- | --- |
| IGMESAGIHETTY [CMS016] | 0.22 ± 0.06 % | 0.20 ± 0.03*^@^ % | 0.18 ± 0.05 % | increase | 91 ± 7*^@^ % | increase | enhance | 162 ± 19*^@^ IU | 6.9 ± 0.8*^ | enhance | 93 ± 32*^@ Unit | 143 ± 38*^@^ Unit | enhance | – | – | – | – | – | – | – |
| LRVAPQQHPTL [CMS009] | – | – | – | – | – | increase | enhance | 121 ± 15*^ IU | 6.9 ± 0.9*^ | enhance | 79 ± 18*^@ Unit | 113 ± 22*^@^ Unit | – | 92 ± 6*^@^ % | 2 ± 1 | 13 ± 5 Unit | – | – | – | – |
| RVAPQQHPTL [CMS011] | 0.22 ± 0.04 % | – | – | – | – | increase | enhance | 89 ± 18 IU | 6.4 ± 1.1 | enhance | 115 ± 27*^@^ Unit | 188 ± 16*^@^ Unit | – | 76 ± 10 % | 5 ± 3 | 67 ± 9*^@ Unit | 79 ± 3 | – | – | – |
| Tyr Ser Phe (YSF; listed as Sus scrofa) [CMS022] | 0.25 ± 0.04*^@^ % | 0.30 ± 0.03*^@^ % | 0.26 ± 0.05*^@^ % | increase | – | increase | enhance | 145 ± 13*^@^ IU | – | enhance | – | 68 ± 31*^@ Unit | enhance | – | – | 110 ± 16*^@^ Unit | 73 ± 11 | 0.21 ± 0.06 | 7.4 ± 0.6*^@^ | – |
| VAPEEHPTLLTEAPLNPK [CMS010] | 0.27 ± 0.05*^@^ % | – | 0.19 ± 0.04 % | increase | 91 ± 4*^@^ % | increase | enhance | 167 ± 13*^@^ IU and 142 ± 18*^@^ IU | 7.1 ± 0.7*^ | enhance | – | 112 ± 30*^@^ Unit | – | 82 ± 9 % | 10 ± 3 | – | – | 0.21 ± 0.03 | – | – |
| IFN-γ: recombinant mouse IFN-γ (rmIFN-γ), Beijing Biotech Inc.; positive control (protein, UniProt P01580 23-155, looked up) Interferon gamma: HGTVIESLESLNNYFNSSGIDVEEKSLFLDIWRNWQKDGDMKILQSQIISFYLRLFEVLKDNQAISNNISVIESHLITTFFSNSKAKKDAFMSIAKFEVNNPQVQRQAFNELIRVVHQLLPESSLRKRKRSRC | 0.15 ± 0.04% | 0.15 ± 0.04% | 0.15 ± 0.04% | – | 77 ± 8 % | – | – | 139 ± 16 IU and 125 ± 18 IU and 124 ± 16 IU | 6.4 ± 0.9 | – | 37 ± 10 Unit | 37 ± 10 Unit | – | 80 ± 8 % | 37 ± 10 | 37 ± 10 Unit | 72 ± 9 | 0.15 ± 0.04 | 6.4 ± 0.9 | NK cell cytotoxic activity, X ± SD (%) (NK cell; peptide 50 μg/kg/day i.p. 15 days (IFN-γ, IL-2 3×10^5 IU/kg/day), saline 56 ± 8): 73 ± 10 %; X ± SD (phagocytotic index) (mononuclear phagocyte; [11]): 6.4 ± 0.9; X ± SD (phagocytotic index) (mononuclear phagocyte; [2]): 6.4 ± 0.9 |
